Experimental data published in PMC11906898 (Nature Communications, 2025).
Where two headings read alike, the source gives them in different places.

What was measured:
in vitro = in vitro ADME; conditions: human, microsomes, pH 7.4
respiration rate = format: in vivo, C57BL6/J mice; conditions: 30 mg/kg sc
spontaneous ambulation = format: in vivo, C57BL6/J mice; conditions: C6-Quino 30 mg/kg s.c.; morphine 10 or 30 mg/kg s.c.
seizurogenic activity [1] = conditions: mouse, in vivo
seizurogenic activity [2] = test system: seizurogenic activity

CCN(CC)CCNC(=O)c1c(C)[nH]c(/C=C2\C(=O)Nc3ccc(F)cc32)c1C [Sunitinib]
half-life (in vitro): 27 min

CN1CC[C@]23c4c5ccc(O)c4O[C@H]2[C@@H](O)C=C[C@H]3[C@H]1C5 [morphine]
breath rate (respiration rate): showed respiratory depression | locomotion (spontaneous ambulation): significant increase in locomotion above baseline

SNC80
duration of seizures (seizurogenic activity [1]): 20 min | seizures after sc dosing (seizurogenic activity [1]): produced robust seizures | seizures after intracerebroventricular dosing (seizurogenic activity [2]; mouse, in vivo): caused robust seizures

TAN67
seizures after intracerebroventricular dosing (seizurogenic activity [2]; 100 nmol i.c.v.): caused robust seizures
